{"source": "PubChem BioAssay (NCI)", "assay_in_all_cases": "inhibition of tumour cell growth, NCI panel, 384-well format", "key": {"[1]": {"system": "PC-3 prostate"}, "[2]": {"system": "CCRF-CEM leukemia"}, "[3]": {"system": "BT-549 breast"}, "[4]": {"system": "NCI/ADR-RES ovarian"}, "[5]": {"system": "SF-539 CNS"}, "[6]": {"system": "SN12C renal"}, "[7]": {"system": "UACC-62 melanoma"}, "[8]": {"system": "SF-295 CNS"}, "[9]": {"system": "KM12 colon"}, "[10]": {"system": "HS 578T breast"}, "[11]": {"system": "HCT-15 colon"}, "[12]": {"system": "SF-268 CNS"}, "[13]": {"system": "DU-145 prostate"}, "[14]": {"system": "SK-OV-3 ovarian"}, "[15]": {"system": "NCI-H23 lung"}, "[16]": {"system": "HL-60(TB) leukemia"}, "[17]": {"system": "MDA-MB-231 breast"}, "[18]": {"system": "K-562 leukemia"}, "[19]": {"system": "MOLT-4 leukemia"}, "[20]": {"system": "NCI-H322M lung"}, "[21]": {"system": "NCI-H226 lung"}, "[22]": {"system": "RPMI-8226 leukemia"}, "[23]": {"system": "A549 NSCLC"}, "[24]": {"system": "SNB-75 CNS"}, "[25]": {"system": "786-0 renal"}, "[26]": {"system": "UACC-257 melanoma"}, "[27]": {"system": "EKVX NSCLC"}, "[28]": {"system": "U251 glioblastoma"}, "[29]": {"system": "RXF 393 renal"}, "[30]": {"system": "A498 renal"}, "[31]": {"system": "OVCAR-8 ovarian"}, "[32]": {"system": "ACHN renal"}, "[33]": {"system": "SK-MEL-2 melanoma"}, "[34]": {"system": "SK-MEL-28 melanoma"}, "[35]": {"system": "HOP-62 NSCLC"}, "[36]": {"system": "SNB-19 CNS"}, "[37]": {"system": "HCC-2998 colon"}, "[38]": {"system": "HCT-116 colon"}, "[39]": {"system": "HT29 colon"}, "[40]": {"system": "CAKI-1 renal"}, "[41]": {"system": "SR leukemia"}, "[42]": {"system": "SW-620 colon"}, "[43]": {"system": "MCF7 breast"}, "[44]": {"system": "MDA-MB-435 melanoma"}, "[45]": {"system": "SK-MEL-5 melanoma"}, "[46]": {"system": "OVCAR-4 ovarian"}, "[47]": {"system": "OVCAR-3 ovarian"}}, "note": "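Here, GI50 denotes the concentration required for 50% inhibition of growth. TGI: concentration producing complete growth inhibition.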"}
{"compound": "COc1ccc([C@@H](O)c2cc(-c3ncnc4cc(N5CCOCC5)ccc34)c(F)cc2Cl)nn1", "values": [{"measurement": "GI50", "setting": "[1]", "value": 0.889, "unit": "µM"}, {"measurement": "TGI", "setting": "[1]", "value": 11.1, "unit": "µM"}, {"measurement": "GI50", "setting": "[2]", "value": 2.2, "unit": "µM"}, {"measurement": "TGI", "setting": "[2]", "value": 7, "unit": "µM"}, {"measurement": "GI50", "setting": "[3]", "value": 1.19, "unit": "µM"}, {"measurement": "TGI", "setting": "[3]", "value": 9.64, "unit": "µM"}, {"measurement": "GI50", "setting": "[4]", "value": 3.97, "unit": "µM"}, {"measurement": "TGI", "setting": "[4]", "value": 17.6, "unit": "µM"}, {"measurement": "GI50", "setting": "[5]", "value": 3.38, "unit": "µM"}, {"measurement": "TGI", "setting": "[5]", "value": 28.4, "unit": "µM"}, {"measurement": "GI50", "setting": "[6]", "value": 1.47, "unit": "µM"}, {"measurement": "TGI", "setting": "[6]", "value": 17.1, "unit": "µM"}, {"measurement": "GI50", "setting": "[7]", "value": 1.16, "unit": "µM"}, {"measurement": "TGI", "setting": "[7]", "value": 11.8, "unit": "µM"}, {"measurement": "GI50", "setting": "[8]", "value": 1.87, "unit": "µM"}, {"measurement": "TGI", "setting": "[8]", "value": 12.6, "unit": "µM"}, {"measurement": "GI50", "setting": "[9]", "value": 5.81, "unit": "µM"}, {"measurement": "TGI", "setting": "[9]", "value": 19, "unit": "µM"}, {"measurement": "GI50", "setting": "[10]", "value": 0.864, "unit": "µM"}, {"measurement": "TGI", "setting": "[10]", "value": 3.7, "unit": "µM"}, {"measurement": "GI50", "setting": "[11]", "value": 3.49, "unit": "µM"}, {"measurement": "TGI", "setting": "[11]", "value": 15, "unit": "µM"}, {"measurement": "GI50", "setting": "[12]", "value": 6.38, "unit": "µM"}, {"measurement": "TGI", "setting": "[12]", "value": 26.8, "unit": "µM"}, {"measurement": "GI50", "setting": "[13]", "value": 4.21, "unit": "µM"}, {"measurement": "TGI", "setting": "[13]", "value": 18.8, "unit": "µM"}, {"measurement": "GI50", "setting": "[14]", "value": 1.57, "unit": "µM"}, {"measurement": "TGI", "setting": "[14]", "value": 6.2, "unit": "µM"}, {"measurement": "GI50", "setting": "[15]", "value": 2.49, "unit": "µM"}, {"measurement": "TGI", "setting": "[15]", "value": 14.9, "unit": "µM"}, {"measurement": "GI50", "setting": "[16]", "value": 0.522, "unit": "µM"}, {"measurement": "TGI", "setting": "[16]", "value": 1.94, "unit": "µM"}, {"measurement": "GI50", "setting": "[17]", "value": 3.52, "unit": "µM"}, {"measurement": "TGI", "setting": "[17]", "value": 37.4, "unit": "µM"}, {"measurement": "GI50", "setting": "[18]", "value": 3.55, "unit": "µM"}, {"measurement": "TGI", "setting": "[18]", "value": 22, "unit": "µM"}, {"measurement": "GI50", "setting": "[19]", "value": 0.892, "unit": "µM"}, {"measurement": "TGI", "setting": "[19]", "value": 2.31, "unit": "µM"}, {"measurement": "GI50", "setting": "[20]", "value": 3.88, "unit": "µM"}, {"measurement": "TGI", "setting": "[20]", "value": 21, "unit": "µM"}, {"measurement": "GI50", "setting": "[21]", "value": 3.64, "unit": "µM"}, {"measurement": "TGI", "setting": "[21]", "value": 24.6, "unit": "µM"}, {"measurement": "GI50", "setting": "[22]", "value": 1.09, "unit": "µM"}, {"measurement": "TGI", "setting": "[22]", "value": 2.86, "unit": "µM"}, {"measurement": "GI50", "setting": "[23]", "value": 2.6, "unit": "µM"}, {"measurement": "TGI", "setting": "[23]", "value": 12.3, "unit": "µM"}, {"measurement": "GI50", "setting": "[24]", "value": 0.668, "unit": "µM"}, {"measurement": "TGI", "setting": "[24]", "value": 3.15, "unit": "µM"}, {"measurement": "GI50", "setting": "[25]", "value": 2.6, "unit": "µM"}, {"measurement": "TGI", "setting": "[25]", "value": 17.8, "unit": "µM"}, {"measurement": "GI50", "setting": "[26]", "value": 3.59, "unit": "µM"}, {"measurement": "TGI", "setting": "[26]", "value": 17.8, "unit": "µM"}, {"measurement": "GI50", "setting": "[27]", "value": 1.54, "unit": "µM"}, {"measurement": "TGI", "setting": "[27]", "value": 10.7, "unit": "µM"}, {"measurement": "GI50", "setting": "[28]", "value": 8.43, "unit": "µM"}, {"measurement": "TGI", "setting": "[28]", "value": 26.1, "unit": "µM"}, {"measurement": "GI50", "setting": "[29]", "value": 0.553, "unit": "µM"}, {"measurement": "TGI", "setting": "[29]", "value": 3.3, "unit": "µM"}, {"measurement": "GI50", "setting": "[30]", "value": 0.372, "unit": "µM"}, {"measurement": "TGI", "setting": "[30]", "value": 1.99, "unit": "µM"}, {"measurement": "GI50", "setting": "[31]", "value": 3.97, "unit": "µM"}, {"measurement": "TGI", "setting": "[31]", "value": 22.4, "unit": "µM"}, {"measurement": "GI50", "setting": "[32]", "value": 2.38, "unit": "µM"}, {"measurement": "TGI", "setting": "[32]", "value": 16.5, "unit": "µM"}, {"measurement": "GI50", "setting": "[33]", "value": 16.1, "unit": "µM"}, {"measurement": "TGI", "setting": "[33]", "value": 31.2, "unit": "µM"}, {"measurement": "GI50", "setting": "[34]", "value": 2.39, "unit": "µM"}, {"measurement": "TGI", "setting": "[34]", "value": 27.8, "unit": "µM"}, {"measurement": "GI50", "setting": "[35]", "value": 4.86, "unit": "µM"}, {"measurement": "TGI", "setting": "[35]", "value": 26, "unit": "µM"}, {"measurement": "GI50", "setting": "[36]", "value": 7.21, "unit": "µM"}, {"measurement": "TGI", "setting": "[36]", "value": 28.3, "unit": "µM"}, {"measurement": "GI50", "setting": "[37]", "value": 3.21, "unit": "µM"}, {"measurement": "TGI", "setting": "[37]", "value": 11.4, "unit": "µM"}, {"measurement": "GI50", "setting": "[38]", "value": 3.88, "unit": "µM"}, {"measurement": "TGI", "setting": "[38]", "value": 16.4, "unit": "µM"}, {"measurement": "GI50", "setting": "[39]", "value": 3.36, "unit": "µM"}, {"measurement": "TGI", "setting": "[39]", "value": 16.3, "unit": "µM"}, {"measurement": "GI50", "setting": "[40]", "value": 1.19, "unit": "µM"}, {"measurement": "TGI", "setting": "[40]", "value": 16, "unit": "µM"}, {"measurement": "GI50", "setting": "[41]", "value": 6.08, "unit": "µM"}, {"measurement": "TGI", "setting": "[41]", "value": 19.5, "unit": "µM"}, {"measurement": "GI50", "setting": "[42]", "value": 5.21, "unit": "µM"}, {"measurement": "TGI", "setting": "[42]", "value": 18.9, "unit": "µM"}, {"measurement": "GI50", "setting": "[43]", "value": 0.843, "unit": "µM"}, {"measurement": "TGI", "setting": "[43]", "value": 10.4, "unit": "µM"}, {"measurement": "GI50", "setting": "[44]", "value": 5.07, "unit": "µM"}, {"measurement": "TGI", "setting": "[44]", "value": 20.6, "unit": "µM"}, {"measurement": "GI50", "setting": "[45]", "value": 1.61, "unit": "µM"}, {"measurement": "TGI", "setting": "[45]", "value": 5.92, "unit": "µM"}, {"measurement": "GI50", "setting": "[46]", "value": 5.02, "unit": "µM"}, {"measurement": "TGI", "setting": "[46]", "value": 26.2, "unit": "µM"}, {"measurement": "GI50", "setting": "[47]", "value": 1.17, "unit": "µM"}, {"measurement": "TGI", "setting": "[47]", "value": 9.62, "unit": "µM"}]}
